32 compounds from patent US20210038559A1, “CANNABINOIDS AND DERIVATIVES FOR PROMOTING IMMUNOGENICITY OF TUMOR AND INFECTED CELLS” (priority 2018, published 2021) can be followed below.

In one experiment the test system is MHC-I expression by COLO 205 cells. Description: cells. The experiment is classed as cell-based, human.
Conditions: not given
How it is done: A panel of synthetic cannabinoids (Cayman Chemical, #9002891) was tested for MHC class I-inducing capability in COLO 205 cells as described above. COLO 205 cells were treated with the compounds at a concentration of 35 μM and evaluated for cell surface MHC class I expression after 48 hours. Cells were harvested, stained with MHC-I mAb W6/32 (Thermo Fisher). MHC-I expression was determined by flow cytometry.
Take `CCCn1cc(C(=O)c2cccc3ccccc23)c2ccccc21` [Example 65, 1-naphthalenyl(1-propyl-1H-indol-3-yl)-methanone]: the “Induction Fold” value stood at 2.77 Fold.

`CCCCCn1cc(C(=O)c2cc(C)cc3ccccc23)c2ccccc21` [Example 219, (3-methylnaphthalen-1-y1)(1-pentyl-1H-indol-3-yl)methanone]: the “Induction Fold” value is reported as 1.78 Fold. Same read-out and setting: the value for “(1-hexyl-5-phenyl-1H-pyrrol-3-yl)-1-naphthalenyl-methanone [Example 82]” was 2.54 Fold; that for “(2-ethyl-1-pentyl-1H-indol-3-yl)-1-naphthalenyl-methanone [Example 154]” was 2.11 Fold. The same measure, in the same setting: the value for “[5-(3-fluorophenyl)-1-pentyl-1H-pyrrol-3-yl]-1-naphthalenyl-methanone [Example 109]” was 2.37 Fold.

Staying with this experiment, now noted: Homo sapiens, COLO 205, 48 h, MHC-I expression, COLO 205 cells, compounds at 35 μM, 48 hours, flow cytometry (W6/32); read-out: Induction Fold.
Consider `O=C(Oc1cccc2cnccc12)c1cn(CC2CCCCC2)c2ccccc12` [Example 162, isoquinolin-5-yl 1-(cyclohexylmethyl)-1H-indole-3-carboxylate], for which the fold induction at 35 µM is 2.04.

Turning to `CCCCCn1cc(C(=O)Nc2cccc3cccnc23)c2ccccc21` [Example 141, 1-pentyl-N-8-quinolinyl-1H-indole-3-carboxamide], the fold induction at 35 µM was 2.19. Still for that read-out and setting: the value for `O=C(c1cccc2ccccc12)c1nc2ccccc2n1CCCCCF` [Example 40, (1-(5-fluoropentyl)-1H-benzo[d]imidazol-2-yl)(naphthalen-1-yl)methanone] was 3.14; that for `O=C(Oc1ccnc2ccccc12)c1cn(CCCCCF)c2ccccc12` [Example 92, quinolin-4-yl 1-(5-fluoropentyl)-1H-indole-3-carboxylate] was 2.47; that for `O=C(NC1C2CC3CC(C2)CC1C3)c1nn(CC2CCOCC2)c2ccccc12` (single isomer, unassigned) [Example 352, N-(adamantan-2-yl)-1-((tetrahydro-2H-pyran-4-yl)methyl)-1H-indazole-3-carboxamide] was 1.07. On the same count and under the same terms, the value for `CCCc1ccc(C(=O)c2cn(CCC)c3ccccc23)c2ccccc12` [Example 78, (1-propyl-1H-indol-3-yl)(4-propyl-1-naphthalenyl)-methanone] was 2.58. On the same count and under the same terms, the value for `CCCCCn1cc(C(=O)Cc2cccc(C)c2)c2ccccc21` [Example 165, 1-(1-pentyl-1H-indol-3-yl)-2-(m-tolyl)ethanone] was 2.02; that for `CCCCCn1cc(C(=O)c2cccc3ccc(C)cc23)c2ccccc21` [Example 161, (7-methyl-1-naphthalenyl)(1-pentyl-1H-indol-3-yl)-methanone] was 2.06. `O=C(Oc1cccc2ccccc12)c1cn(Cc2ccc(F)cc2)c2ccccc12` [Example 248, 1-[(4-fluorophenyl)methyl]-1H-indole-3-carboxylic acid, 1-naphthalenyl ester]: the fold induction at 35 µM is 1.63. On the same count and under the same terms, the figure for `CCCCCn1cc(C(=O)NC(C)(C)c2ccccc2)c2ccccc21` [Example 351, N-(1-methyl-1-phenylethyl)-1-pentyl-1H-indole-3-carboxamide] is 1.07; for `CCCCCn1cc(C(=O)c2ccccc2I)c2ccccc21` [Example 36, (2-iodophenyl)(1-pentyl-1H-indol-3-yl)-methanone] it is 3.3. For `CC1(C)C(C(=O)c2cn(CCN3CCOCC3)c3ccccc23)C1(C)C` [Example 147, [1-[2-(4-morpholinyl)ethyl]-1H-indol-3-yl](2,2,3,3-tetramethylcyclopropyl)-methanone], the fold induction at 35 µM worked out at 2.14. The same measure, in the same setting: the figure for `CC(C)CCCCn1cc(C(=O)C2C(C)(C)C2(C)C)c2ccccc21` [Example 225, (1-(5-methylhexyl)-1H-indol-3-yl)(2,2,3,3-tetramethylcyclopropyl)methanone] is 1.75; for `O=C(Oc1cccc2cccnc12)c1nn(Cc2ccc(F)cc2)c2ccccc12` [Example 276, quinolin-8-yl 1-(4-fluorobenzyl)-1H-indazole-3-carboxylate] it is 1.51. Turning to `COc1cccc2c(C(=O)N3CCN(C)C(C)C3)cn(CC3CCCCC3)c12` (racemic) [Example 277, [1-(cyclohexylmethyl)-7-methoxy-1H-indol-3-yl](3,4-dimethyl-1-piperazinyl)-methanone], the fold induction at 35 µM was 1.5.

For `CCCCCn1cc(C(=O)c2cccc3cc(Cl)ccc23)c2ccccc21` [Example 285, (6-chloronaphthalen-1-yl)(1-pentyl-1H-indol-3-yl)methanone], the fold induction at 35 µM was determined as 1.46.

For the compound `NC(=O)[C@H](Cc1ccccc1)NC(=O)c1cn(CCCCCF)c2ccccc12` [Example 267, (S)-N-(1-amino-1-oxo-3-phenylpropan-2-yl)-1-(5-fluoropentyl)-1H-indole-3-carboxamide], the fold induction at 35 µM was 1.55. Still for that read-out and setting: the value for `CCCCCn1nc(C(=O)N[C@H](C(N)=O)C(C)C)c2ccccc21` [Example 100, (S)-N-(1-amino-3-methyl-1-oxobutan-2-yl)-1-pentyl-1H-indazole-3-carboxamide] was 2.43; that for `CCCCCn1cc(C(=O)NC23CC4CC(CC(C4)C2)C3)c(=O)c2cc(C(C)C)ccc21` [Example 364, 1,4-dihydro-6-(1-methylethyl)-4-oxo-1-pentyl-N-tricyclo[3.3.1.1^3, 7]dec-1-yl-3-quinolinecarboxamide] was 0.89.

`CCCCCn1cc(C(=O)c2ccc3ccccc3c2)c2ccccc21` [Example 259, 2-naphthalenyl(1-pentyl-1H-indol-3-yl)-methanone]: the fold induction at 35 µM was determined as 1.58.

Take `O=C(c1cccc(I)c1)c1cn(CCCCCF)c2ccccc12` [Example 130, (1-(5-fluoropentyl)-1H-indol-3-yl)(3-iodophenyl)methanone]: the fold induction at 35 µM came out at 2.26.

On to `O=C(Nc1ccc2ccccc2c1)c1cn(CCCCCF)c2ccccc12` [Example 337, 1-(5-fluoropentyl)-N-(naphthalen-2-yl)-1H-indole-3-carboxamide], for which the fold induction at 35 µM is 1.19. Same read-out and setting: the value for `CCC(F)CCn1cc(C(=O)c2ccc(C)c3ccccc23)c2ccccc21` (centres unmarked) [Example 174, (1-(3-fluoropentyl)-1H-indol-3-yl)(4-methylnaphthalen-1-yl)methanone] was 1.96; that for `O=C(Oc1cnc2ccccc2c1)c1cn(CC2CCCCC2)c2ccccc12` [Example 261, Quinolin-3-yl 1-(cyclohexylmethyl)-1H-indole-3-carboxylate] was 1.56.

For `CCCCCn1cc(C(=O)Nc2ccc3ccccc3c2)c2ccccc21` [Example 349, N-2-naphthalenyl-1-pentyl-1H-indole-3-carboxamide], the fold induction at 35 µM was found to be 1.1.

The same experiment, now with this note: Homo sapiens, COLO 205, 48 h, read-out: Induction Fold.
Take `CN1CCCCC1Cn1cc(C(=O)C2C(C)(C)C2(C)C)c2ccccc21` (centres unmarked) [Example 368, [1-[(1-methyl-2-piperidinyl)methyl]-1H-indol-3-yl](2,2,3,3-tetramethylcyclopropyl)-methanone]: the fold induction at 35 µM amounted to 0.85.

Staying with this experiment, now noted: MHC-I expression, COLO 205 cells, compounds at 35 μM, 48 hours, flow cytometry (W6/32).
Consider `COC(=O)[C@@H](NC(=O)c1cn(Cc2ccc(F)cc2)c2ccccc12)C(C)(C)C` [Example 269, N-[[1-[(4-fluorophenyl)methyl]-1H-indol-3-yl]carbonyl]-3-methyl-1-valine, methyl ester], for which the “Induction Fold” value came to 1.54 Fold.
